Patent publication US9765039B2, “Biaryl derivatives as bromodomain inhibitors” (Zenith Epigenetics Ltd., priority 2012, dated 2017)

Legend:
Brd4 bromodomain 1 = molecular target: T1, Brd4 bromodomain 1 (Homo sapiens, UniProt O60885); experiment: Inhibition of tetra-acetylated histone H4 binding to BET bromodomains (TR-FRET); set-up: key: Active: Compounds with an IC50 value less than 30 μM were deemed to be active.; Not Active: Compounds with an IC50 value less than 30 μM were deemed to be active; details: first bromodomain of Brd4, tetra-acetylated histone H4 peptide
T1 construct: made in house; host or cells: E. coli BL21(DE3)
How it was run: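 TR-FRET with N-terminally His-tagged bromodomains (200 nM, E. coli-expressed, Ni affinity and SEC-purified) and biotinylated tetra-acetylated histone H4 peptide (25–50 nM), detected with Eu-cryptate streptavidin and XL665 anti-His antibody. Buffer 30 mM HEPES pH 7.4, 320 mM KF, 0.08% BSA, 0.2% DMSO; 2 h RT. IC50 from decrease in 665/620 nm ratio.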

hApoA-1 mRNA = experiment: Up-regulation of hApoA-1 mRNA transcription in Huh7 cells; type: cell-based, human; set-up: key: Active: Compounds with an EC170 value less than 30 μM are deemed to be active.; Not Active: Compounds with an EC170 value less than 30 μM are deemed to be active; details: 48 hrs treatment, ApoA-I mRNA
Experimental: In this example, ApoA-I mRNA in tissue culture cells was quantitated to measure the transcriptional up-regulation of ApoA-I when treated with a compound of the present disclosure.
Huh7 cells ([…] per well) were plated in a 96-well plate using 100 μL DMEM per well, (Gibco DMEM supplemented with penicillin/streptomycin and 10% FBS), 24 h before the addition of the compound of interest. After 48 hrs treatment, the spent media was removed from the Huh-7 cells and placed on ice (for immediate use) or at −80° C. (for future use) with the “LDH cytotoxicity assay Kit II” from Abcam. The cells remaining in the plate were rinsed with 100 μL PBS.
Then 85 μL of cell lysis solution was added to each well and incubated for 5-10 minutes at room temperature, to allow for complete cell lysis and detachment. mRNA was then prepared using the “mRNA Catcher PLUS plate” from Life Technologies, according to the protocol supplied. After the last wash, as much wash buffer as possible was aspirated without allowing the wells to dry. Elution Buffer (E3, 80 μL) was then added to each well. mRNA was then eluted by incubating the mRNA Catcher PLUS plate with Elution Buffer for 5 minutes at 68° C., and then 1 minute at 4° C. Catcher plates with mRNA eluted were kept on ice for use or stored at −80° C.
The eluted mRNA isolated was then used in a one-step real-time PCR reaction, using components of the Ultra Sense Kit together with Life Technologies primer-probe mixes. Real-time PCR data was analyzed, using the Ct values, to determine the fold induction of each unknown sample, relative to the control (that is, relative to the control for each independent DMSO concentration).
Compounds with an EC170 value less than 30 μM are deemed to be active.

Human AML MV-4-11 cells = experiment: Inhibition of cell proliferation in cancer cell lines (CellTiter Aqueous One); type: cell-based; set-up: key: Active: Compounds with an IC50 value less than 30 μM were deemed to be active.; Not Active: Compounds with an IC50 value less than 30 μM were deemed to be active; details: 72 hours
How it was run: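 Exponentially growing MV-4-11 cells were treated immediately with two-fold compound dilutions from 30 µM to 0.2 µM in triplicate for 72 h at 37 °C. Viability was read by MTS (CellTiter Aqueous One) absorbance at 490 nm after 3-4 h; % proliferation vs DMSO gave IC50.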

hIL-6 mRNA = experiment: Inhibition of hIL-6 mRNA transcription in LPS-stimulated U937 macrophages; type: cell-based, human; set-up: key: Active: Compounds with an IC50 value less than 30 μM are deemed to be active; details: U937 differentiated into macrophages, 1 h pretreatment, lipopolysaccharide 3 h
How it was run: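 U937 cells differentiated 3 days with 60 ng/mL PMA, pretreated 1 h with compound, then stimulated with […] E. coli LPS for 3 h at 37° C. hIL-6 mRNA quantified by one-step real-time RT-PCR, Ct normalised to internal control and expressed as fold induction relative to control.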

c-myc = experiment: Inhibition of c-myc expression in cancer cell lines (mRNA, real-time PCR); type: cell-based; set-up: key: Active: Compounds with an IC50 value less than 30 μM were deemed to be active; details: Human AML MV4-11 cells, 3 hours
How it was run: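 MV4-11 cells (2.5×10^4) exposed to compound or 0.1% DMSO for 3 h at 37° C, then lysed for mRNA isolation. c-myc and cyclophilin cDNAs co-amplified by duplex RT real-time PCR. IC50 from dose-response curve.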

Structure (SMILES)	FRET activity (IC50 < 30 μM) (Brd4 bromodomain 1)	ApoA-1 Activity (EC170 < 30 μM) (hApoA-1 mRNA)	melting point	cell proliferation activity (IC50 < 30 μM) (Human AML MV-4-11 cells)	IL-6 activity (IC50 < 30 μM) (hIL-6 mRNA)	c-myc activity (IC50 < 30 μM) (c-myc)
COc1cc(OC)c2c(=O)[nH]c(-c3ccc(OCCNC(C)C)c(-c4ccc(C(=O)N(C)C)cc4)n3)nc2c1 [Example 26, 4-(6-(5,7-Dimethoxy-4-oxo-3,4-dihydroquinazolin-2-yl)-3-(2-(isopropylamino)ethoxy)pyridin-2-yl)-N,N-dimethylbenzamide]	Active	Active	214 to 215 °C	Active	Active	Active
COc1cc(OC)c2c(=O)[nH]c(-c3ccc(OCCN4CCCC4)c(-c4ccc(S(C)(=O)=O)cc4)n3)nc2c1.Cl [Example 29, 5,7-Dimethoxy-2-(6-(4-(methylsulfonyl)phenyl)-5-(2-(pyrrolidin-1-yl)ethoxy)pyridin-2-yl)quinazolin-4(3H)-one hydrochloride]	Active	Active	211 to 213 °C	Active	Active	Active
COc1cc(OC)c2c(=O)[nH]c(-c3ccc(OCCO)c(-c4cccc([S+](C)[O-])c4)n3)nc2c1 (stereo not drawn) [Example 37, 2-(5-(2-Hydroxyethoxy)-6-(3-(methylsulfinyl)phenyl)pyridin-2-yl)-5,7-dimethoxyquinazolin-4(3H)-one]	Active	Active	272 to 273 °C	Not Active	Active	Active
COc1cc(OC)c2c(=O)[nH]c(-c3ccc(OCCO)c(-c4ccc([S+](C)[O-])cc4)n3)nc2c1 (stereo not drawn) [Example 38, 2-(5-(2-Hydroxyethoxy)-6-(4-(methylsulfinyl)phenyl)pyridin-2-yl)-5,7-dimethoxyquinazolin-4(3H)-one]	Active	Active	281 to 282 °C	Active	Active	Active
COc1cc(OC)c2c(=O)[nH]c(-c3ccc(OCCNC(C)C)c(-c4cccc([S+](C)[O-])c4)n3)nc2c1 (stereo not drawn) [Example 40, 2-(5-(2-(Isopropylamino)ethoxy)-6-(3-(methylsulfinyl)phenyl)pyridin-2-yl)-5,7-dimethoxyquinazolin-4(3H)-one]	Active	Active	156 to 157 °C	Active	Active	Active
COc1cc(OC)c2c(=O)[nH]c(-c3ccc(OCCNC(C)C)c(-c4ccc(S(C)(=O)=O)cc4C)n3)nc2c1 [Example 45, 2-(5-(2-(Isopropylamino)ethoxy)-6-(2-methyl-4-(methylsulfonyl)phenyl)pyridin-2-yl)-5,7-dimethoxyquinazolin-4(3H)-one]	Active	Active	202 to 203 °C	Active	Active	Active
COc1cc(OC)c2c(=O)[nH]c(-c3ccc(OCCNC(C)C)c(-c4ccc(S(C)(=O)=O)cc4C(F)(F)F)n3)nc2c1 [Example 46, 2-(5-(2-(Isopropylamino)ethoxy)-6-(4-(methylsulfonyl)-2-(trifluoromethyl)phenyl)pyridin-2-yl)-5,7-dimethoxyquinazolin-4(3H)-one]	Active	Active	199 to 201 °C	Active	Active	Active
COc1cc(OC)c2c(=O)[nH]c(-c3cccc(-c4ccc([S+](C)[O-])cc4)n3)nc2c1 (stereo not drawn) [Example 49, 5,7-Dimethoxy-2-(6-(4-(methylsulfinyl)phenyl)pyridin-2-yl)quinazolin-4(3H)-one]	Active	Active	281 to 282 °C	Active	Active	Not Active
COc1cc(OC)c2c(=O)[nH]c(-c3ccc(OCCN(C(=O)OC(C)(C)C)C(C)C)c(-c4ccc([S+](C)[O-])cc4)n3)nc2c1 (stereo not drawn) [Example 53, tert-Butyl (2-((6-(5,7-dimethoxy-4-oxo-3,4-dihydroquinazolin-2-yl)-2-(4-(methylsulfinyl)phenyl)pyridin-3-yl)oxy)ethyl)(isopropyl)carbamate]	Active	Active	114 to 116 °C	Not Active	Not Active	Not Active
COc1cc(OC)c2c(=O)[nH]c(-c3ccc(OCCN4CCCC4)c(-c4ccc([S+](C)[O-])cc4)n3)nc2c1 (stereo not drawn) [Example 55, 5,7-Dimethoxy-2-(6-(4-(methylsulfinyl)phenyl)-5-(2-(pyrrolidin-1-yl)ethoxy)pyridin-2-yl)quinazolin-4(3H)-one]	Active	Active	103 to 105 °C	Active	Active	Not Active
COc1cc(OC)c2c(=O)[nH]c(-c3ccc(OC)c(-c4ccc(C(=O)N(C)C)cc4Cl)c3)nc2c1 [Example 59, 2-Chloro-5′-(5,7-dimethoxy-4-oxo-3,4-dihydroquinazolin-2-yl)-2′-methoxy-N,N-dimethyl-[1,1′-biphenyl]-4-carboxamide]	Active	Active	> 300 °C	Not Active	Active	Active
COc1ccc2c(=O)[nH]c(-c3ccc(OCCNC(C)C)c(-c4ccc(S(C)(=O)=O)cc4)n3)nc2c1 [Example 67]	Active	Active	204 to 205 °C	Active	Not Active	Active
